PubChem BioAssay (NCI)
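Results reflect a 48-hour exposure of cells in 96-well plates to compound at five concentrations. GI50: concentration for 50% inhibition of growth. Definition used: TGI = concentration required for complete inhibition of growth.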

Key:
Experiment in all cases: growth of human tumour cells (NCI), 48 h
786-0 renal = test system: 786-0 renal
HOP-62 NSCLC = test system: HOP-62 NSCLC
NCI-H226 lung = test system: NCI-H226 lung
NCI-H460 lung = test system: NCI-H460 lung
OVCAR-4 ovarian = test system: OVCAR-4 ovarian
OVCAR-5 ovarian = test system: OVCAR-5 ovarian
OVCAR-8 ovarian = test system: OVCAR-8 ovarian
SK-OV-3 ovarian = test system: SK-OV-3 ovarian
SW-620 colon = test system: SW-620 colon
OVCAR-3 ovarian = test system: OVCAR-3 ovarian

SMILES | TGI (786-0 renal) [µM] | TGI (HOP-62 NSCLC) [µM] | TGI (NCI-H226 lung) [µM] | TGI (NCI-H460 lung) [µM] | TGI (OVCAR-4 ovarian) [µM] | TGI (OVCAR-5 ovarian) [µM] | TGI (OVCAR-8 ovarian) [µM] | TGI (SK-OV-3 ovarian) [µM] | TGI (SW-620 colon) [µM] | TGI (OVCAR-3 ovarian) [µM] | GI50 (786-0 renal) [µM] | GI50 (HOP-62 NSCLC) [µM] | GI50 (NCI-H226 lung) [µM] | GI50 (NCI-H460 lung) [µM] | GI50 (OVCAR-3 ovarian) [µM] | GI50 (OVCAR-4 ovarian) [µM] | GI50 (OVCAR-5 ovarian) [µM] | GI50 (OVCAR-8 ovarian) [µM] | GI50 (SK-OV-3 ovarian) [µM] | GI50 (SW-620 colon) [µM]
COc1ccc(-c2cc3ccccc3[nH]c2=O)cc1OC | > 100 | > 100 | > 100 | > 100 | > 100 | > 100 | > 100 | > 100 | > 100 | – | – | – | – | – | – | – | – | – | – | –
O=C1C(Cl)=C(Cl)C(=O)N1c1ccc(Cl)c(Cl)c1Cl | > 100 | > 100 | > 100 | > 100 | > 100 | > 100 | – | > 100 | > 100 | > 100 | – | – | – | – | – | – | – | – | – | –
CC12CCC(=O)C(O1)C1C(=O)c3ccc4c(ccc5ccccc54)c3C(=O)C12 (stereo unspecified) | 6.01 | 50.3 | 12.7 | 11.8 | 3.01 | 11.4 | 12.7 | > 39.1 | – | 2.64 | 2.35 | 26.5 | 5.78 | 4.84 | 1.2 | 1.4 | 6.64 | 4.27 | 11.5 | –
CCCCCCCC(=O)[O-].CCCCCCCC(=O)[O-].N.N.N.N.[Co+3].[O-][Cl+3]([O-])([O-])[O-] | > 100 | – | > 100 | – | – | > 100 | > 100 | > 100 | > 100 | – | > 100 | – | > 100 | – | – | – | > 100 | > 100 | > 100 | > 100
COc1ccc(NC(=O)CC(=O)N/N=C(\C)c2cc3ccccc3oc2=O)cc1 | > 100 | > 100 | > 100 | > 100 | – | – | > 100 | > 100 | > 100 | > 100 | – | – | – | – | – | – | – | – | – | –
CC(C)C1(NC(=O)C2CC3c4cccc5[nH]cc(c45)CC3N(C)C2)OC2(O)C3CCCN3C(=O)C(Cc3ccccc3)N2C1=O (stereo unspecified) | > 100 | > 100 | – | > 100 | > 100 | > 100 | > 100 | – | > 100 | > 100 | – | – | – | – | – | – | – | – | – | –
COc1ccc(Br)c(CN2CCc3ccccc32)c1OS(=O)(=O)c1ccc(C)cc1 | > 100 | – | > 100 | – | – | > 100 | > 100 | – | > 100 | 75.9 | – | – | – | – | – | – | – | – | – | –
CC1CCCC(C#N)(NOC2=NCCN2)C1 (stereo unspecified) | > 100 | – | 37 | > 100 | > 100 | > 100 | > 100 | – | > 100 | > 100 | > 100 | – | 17.2 | 43.3 | 43 | 48.3 | > 100 | 41 | – | 36.3
CC(C)=Cc1cc(CCC/C(C)=C/Cc2c(O)cc(C)c(C(=O)O)c2O)co1 | > 100 | > 100 | – | > 100 | > 100 | > 100 | > 100 | – | > 100 | > 100 | – | – | – | – | – | – | – | – | – | –
C=C(C)[C@@H]1CCc2c(O)c(O)c(=O)cc(C)c2C1 | > 100 | – | > 63 | 3.54 | > 100 | > 100 | 22.3 | > 100 | > 100 | – | – | – | – | – | – | – | – | – | – | –
CC(/C=C/C(=O)c1sc(C(N)=S)nc1C)=C\c1ccccc1 | > 100 | > 100 | > 100 | > 100 | > 100 | > 100 | > 100 | > 100 | – | > 100 | – | – | – | – | – | – | – | – | – | –
